Measured values taken from publication PMC5994333, “-Chemical profiling and biological activity of Peperomia blanda (Jacq.) Kunth” (PeerJ, 2018).
In brackets after ≈: the same amount, converted by molar mass.

Key:
[1] = DPPH free radical scavenging assay; settings: for DPPH IC50: 30 min, 517 nm
Experimental: The free radical scavenging activities of the extracts, peperomin A and phytosterol mixture were estimated using the 1,1-diphenyl-2-picryl-hydrazyl (DPPH) assay. Quantitative estimation was done in 96-well ELISA plates in triplicate. Complete of 70 µL of DMSO was brought for each well followed by 100 µL of plant extract solution or isolated tested compounds. Various concentrations of each extract and peperomin A (15.6 –1,000 µg/mL) were used. Similar concentrations of ascorbic acid were used as positive control. A total of 30 µL DPPH (3.14 X 10^−3 µM) was added to each well, then the plate was allowed to stand in the dark at 25 °C for 30 min, and the absorbance was later recorded taken at 517 nm. The free radical scavenging activity was calculated using the following equation: Free radical scavenging activity%=Abs of DPPH−Abs of sample∕Abs of DPPH×100%. where Abs is absorbance. The relationship between each concentration and its scavenging percentage was plotted, and the IC50 value was calculated by interpolation. Scavenging activity was represented by IC50 values (the extract concentration that scavenges 50% of DPPH radicals).

[2] = FRAP ferric reducing assay; settings: for FRAP: 593 nm
Experimental: The antioxidant power of P. blanda extracts by ferric reduction was done by preparing fresh FRAP reagent from acetate buffer (pH 3.6), a solution of 10 mM TPTZ (2,4,6-tri(2-pyridyl)-s-triazine) in 40 mM HCl and a solution of 20 mM iron (III) chloride in a ratio of 10:1:1 (%v/v) ([Brand-Williams, Cuvelier & Berset, 1995]; [Mohammadzadeh et al., 2007]; [Mothana et al., 2009]; [Salazar-Aranda et al., 2011]), butylated hydroxytoluene (BHT), and ascorbic acid were used as controls. Then, 10 µL of plant extracts, peperomin A, ferrous sulfate (standard) and the controls were added to 300 µL FRAP reagent (triplicate) in the dark and the absorbance was measured at 593 nm. A linear standard curve was constructed using […] FeSO4. The results were represented as the ratio of the concentration of iron(III) mM over the extract dry weight (g).

[3] = system: human promyelocytic leukaemia (HL-60); assay: MTT cytotoxicity assay, HL-60; format: cell-based
Description: (§1) In vitro cytotoxic potency of the investigated extracts was established using the colorimetric (MTT) assay. The three cancer cell lines involved were the human breast adenocarcinoma (MCF-7), murine myelomonocytic leukaemia (WEHI-3) and human promyelocytic leukaemia (HL-60). The three normal cell lines used were the human mammary epithelial cell line (MCF10A), primary dermal fibroblasts cell line (HDFa) and the human hepatic cell line (WRL-68). All cells were from American Type Culture Collection (ATCC) and were subcultured in tissue culture flask (75 cm) with RPMI1640 media mixed with 10% fetal bovine serum and 1% penicillin–streptomycin and kept in an incubator at 5% of CO2 saturation and 37 °C. The following solutions were prepared: crude extracts (dissolved in 1% DMSO) at various concentrations (100, 50, 25, 12.5, 6.3, 3.5, 1.5 and 0 µg/mL); and peperomin A, phytosterol mixture and standard drugs (Taxol and vinblastine) as positive controls at decreasing concentrations (50, 25, 12.5, 6.3, 3.5, 1.5, and 0 µg/mL). N,N′-diphenethyloxamide was not involved in the biological assay because of the low yield obtained. Extracts were incubated with the cancer cell lines for 72 h, and peperomin A and the phytosterol mixture were incubated for 24, 48 and 72 h. After the incubation periods, 20 µL of MTT solution (5 mg/mL) was added to each well and incubated for 4 h. To dissolve the formazan crystals formed, 100 µL of DMSO was added to each well. The IC50 values were calculated from the plot of cancer cell growth versus the concentration of extracts/compounds.

[4] = system: human hepatic cell line (WRL-68); assay: MTT cytotoxicity assay, normal WRL-68; format: cell-based; settings: normal cells
Description: as §1

[5] = system: murine myelomonocytic leukaemia (WEHI-3); assay: MTT cytotoxicity assay, WEHI-3; format: cell-based; settings: Mus musculus
Description: as §1

[6] = system: human breast adenocarcinoma (MCF-7); assay: MTT cytotoxicity assay, MCF-7; format: cell-based; settings: for IC50: Homo sapiens; for Selectivity index: ratio of mean IC50 in normal MCF10a over mean IC50 in MCF-7: Table 4
Description: as §1

[7] = system: human mammary epithelial cell line (MCF10A); assay: MTT cytotoxicity assay, normal MCF10A; format: cell-based; settings: MCF-10A, normal cells
Description: as §1

[8] = system: primary dermal fibroblasts cell line (HDFa); assay: MTT cytotoxicity assay, normal HDFa; format: cell-based; settings: Homo sapiens, normal cells
Description: as §1

[9] = system: HIV-1 IIIB; settings: no reference given; cited from earlier work
[10] = system: C8166 cell line; settings: no reference given; cited from earlier work

Cc1cc(C(C)(C)C)c(O)c(C(C)(C)C)c1 [BHT, butylated hydroxytoluene]
DPPH IC50 [1]: 286.64 ± 8.54 µg/mL
FRAP [2]: 1738.80 ± 9.53 M Fe(II)/g

CC(=O)O[C@H]1C(=O)[C@@]2(C)[C@H]([C@H](OC(=O)c3ccccc3)[C@]3(O)C[C@H](OC(=O)[C@H](O)[C@@H](NC(=O)c4ccccc4)c4ccccc4)C(C)=C1C3(C)C)[C@]1(OC(C)=O)CO[C@@H]1C[C@@H]2O [Paclitaxel]
IC50 ([3]; HL-60, 24 h, 24 hr): 12.7 ± 0.4 µg/mL (≈ 14.9 µM)
IC50 ([3]; HL-60, 48 h, 48hr): 8.67 ± 0.76 µg/mL (≈ 10.2 µM)
IC50 ([3]; HL-60, 72 h, 72hr): 5.13 ± 0.32 µg/mL (≈ 6.01 µM)
IC50 ([4]; WRL68, 24 hr): > 50 µg/mL
IC50 ([4]; WRL68, 48hr): > 50 µg/mL
IC50 ([4]; WRL68, 72hr): > 50 µg/mL
IC50 ([5]; 24 hr): 3.16 ± 0.02 µg/mL (≈ 3.7 µM)
IC50 ([5]; 48hr): 2.15 ± 0.02 µg/mL (≈ 2.52 µM)
IC50 ([5]; 72hr): 1.9 ± 0.9 µg/mL (≈ 2.23 µM)
IC50 ([6]; MCF7, 24 h, 24 hr): 5.87 ± 0.19 µg/mL (≈ 6.87 µM)
IC50 ([6]; MCF7, 48 h, 48hr): 4.47 ± 0.03 µg/mL (≈ 5.23 µM)
IC50 ([6]; MCF7, 72 h, 72hr): 3.56 ± 0.34 µg/mL (≈ 4.17 µM)
IC50 ([6]; MCF7, 72 h, 72 hr, Table 3): 3 ± 0.07 µg/mL (≈ 3.51 µM)
IC50 ([7]; 24 hr): > 50 µg/mL
IC50 ([7]; 48hr): > 50 µg/mL
IC50 ([7]; 72hr): > 50 µg/mL
IC50 ([8]; 24 hr): > 50 µg/mL
IC50 ([8]; 48hr): > 50 µg/mL
IC50 ([8]; 72hr): > 50 µg/mL

COc1cc(C(c2cc(OC)c3c(c2)OCO3)[C@@H]2COC(=O)[C@H]2C)cc2c1OCO2 [Peperomin A]
free radical scavenging activity (in words) [1]: weak
DPPH IC50 [1]: 536.61 ± 6.00 µg/mL
ferric reducing power (in words) [2]: weak
FRAP [2]: 20.79 ± 0.66 M Fe(II)/g
inhibitory effects on HIV-1 IIIB growth in C8166 cells (cytopathic effect, CPE) [9]: moderate inhibitory effects
IC50 ([3]; HL-60, 24 h, 24 hr): 43.62 ± 0.1 µg/mL (≈ 105 µM)
IC50 ([3]; HL-60, 48 h, 48hr): 26.34 ± 0.26 µg/mL (≈ 63.6 µM)
IC50 ([3]; HL-60, 72 h, 72hr): 16.4 ± 0.62 µg/mL (≈ 39.5 µM)
IC50 ([4]; WRL68, 24 hr): > 50 µg/mL
IC50 ([4]; WRL68, 48hr): > 50 µg/mL
IC50 ([4]; WRL68, 72hr): 41.5 ± 0.54 µg/mL (≈ 100 µM)
IC50 ([5]; 24 hr): 20.1 ± 0.46 µg/mL (≈ 48.5 µM)
IC50 ([5]; 48hr): 18.7 ± 0.73 µg/mL (≈ 45.1 µM)
IC50 ([5]; 72hr): 4.62 ± 0.03 µg/mL (≈ 11.1 µM)
selectivity index values for cancer cells [6]: greater than 1
Selectivity index: ratio of mean IC50 in normal MCF10a over mean IC50 in MCF-7 ([6]; 24 hr): 1.1
Selectivity index: ratio of mean IC50 in normal MCF10a over mean IC50 in MCF-7 ([6]; 48hr): 1.3
Selectivity index: ratio of mean IC50 in normal MCF10a over mean IC50 in MCF-7 ([6]; 72hr): 7.4
IC50 ([6]; MCF7, 24 h, 24 hr): 40.7 ± 0.92 µg/mL (≈ 98.3 µM)
IC50 ([6]; MCF7, 48 h, 48hr): 9.22 ± 0.28 µg/mL (≈ 22.2 µM)
IC50 ([6]; MCF7, 72 h, 72hr): 5.58 ± 0.47 µg/mL (≈ 13.5 µM)
cytotoxic activity against the C8166 cell line [10]: cytotoxic activity
IC50 ([7]; 24 hr): > 50 µg/mL
IC50 ([7]; 48hr): > 50 µg/mL
IC50 ([7]; 72hr): > 50 µg/mL
IC50 ([8]; 24 hr): > 50 µg/mL
IC50 ([8]; 48hr): > 50 µg/mL
IC50 ([8]; 72hr): > 50 µg/mL

O=C1O[C@H]([C@@H](O)CO)C(O)=C1O [VIT C, ascorbic acid]
DPPH IC50 [1]: 20.40 ± 0.50 µg/mL
FRAP [2]: 2603.90 ± 10.54 M Fe(II)/g

CC[C@]1(O)C[C@@H]2CN(CCc3c([nH]c4ccccc34)[C@@](C(=O)OC)(c3cc4c(cc3OC)N(C)[C@H]3[C@@](O)(C(=O)OC)[C@H](OC(C)=O)[C@]5(CC)C=CCN6CC[C@]43[C@@H]65)C2)C1 [Vinblastine]
IC50 ([3]; HL-60, 24 h, 24 hr): 5.91 ± 0.31 µg/mL (≈ 7.29 µM)
IC50 ([3]; HL-60, 48 h, 48hr): 4.81 ± 0.19 µg/mL (≈ 5.93 µM)
IC50 ([3]; HL-60, 72 h, 72hr): 2.36 ± 0.08 µg/mL (≈ 2.91 µM)
IC50 ([3]; HL-60, 72 h, 72 hr, Table 3): 5 ± 0.01 µg/mL (≈ 6.17 µM)
IC50 ([4]; WRL68, 24 hr): > 50 µg/mL
IC50 ([4]; WRL68, 48hr): > 50 µg/mL
IC50 ([4]; WRL68, 72hr): > 50 µg/mL
IC50 ([5]; 24 hr): 4.11 ± 0.06 µg/mL (≈ 5.07 µM)
IC50 ([5]; 48hr): 3.56 ± 0.07 µg/mL (≈ 4.39 µM)
IC50 ([5]; 72 hr, Table 3): 0.57 ± 0.035 µg/mL (≈ 0.703 µM)
IC50 ([6]; MCF7, 24 h, 24 hr): 14.6 ± 0.16 µg/mL (≈ 18 µM)
IC50 ([6]; MCF7, 48 h, 48hr): 7.57 ± 0.5 µg/mL (≈ 9.33 µM)
IC50 ([6]; MCF7, 72 h, 72hr): 5.16 ± 0.42 µg/mL (≈ 6.36 µM)
IC50 ([7]; 24 hr): > 50 µg/mL
IC50 ([7]; 48hr): > 50 µg/mL
IC50 ([7]; 72hr): > 50 µg/mL
IC50 ([8]; 24 hr): > 50 µg/mL
IC50 ([8]; 48hr): > 50 µg/mL
IC50 ([8]; 72hr): > 50 µg/mL

COc1cc([C@@H](c2cc(OC)c3c(c2)OCO3)[C@@H]2COC(=O)[C@H]2C)cc(OC)c1OC [peperomin B]
inhibitory effects on HIV-1 IIIB growth in C8166 cells (cytopathic effect, CPE) [9]: moderate inhibitory effects
cytotoxic activity against the C8166 cell line [10]: cytotoxic activity
